Test results from patent publication US20150211028A1, “Production of 1,3-Propanediol in Cyanobacteria” (Algenol Biofuels Inc., priority 2013, published 2015).

How the values were obtained:
[1] = test system: Synechocystis sp. PCC 6803; test: Tolerance testing: growth (OD750) after a one time bolus of 1,3-propanediol; format: cell-based; conditions: OD750 monitored for one week
From the text: (§1) The tolerance of cyanobacterial strains Synechocystis sp. PCC 6803 and Synechococcus sp. PCC 7002 to the presence of accumulated 1,3-propanediol in the culture medium was examined by adding a one time bolus of varying amounts of 1,3-propanediol (ranging from 0.05% to 5%) to exponential phase cultures and comparing the growth of these cultures to a wild type culture with no addition. Growth was monitored by optical density (OD750) for one week. There was no effect on the growth of Synechocystis sp. PCC 6803 in the presence of up to 1% 1,3-propanediol compared to the control (no addition of 1,3-propanediol). […] At 5% 1,3-propanediol, Synechocystis sp. […] There was no effect on the growth of Synechococcus sp. PCC 7002 with up to 1% 1,3-propanediol addition.

[2] = test system: Synechococcus sp. PCC 7002; test: as above; format: cell-based; conditions: OD750 monitored for one week
From the text: as §1

OCCCO [1,3-propanediol]
effect on growth compared to the control ([1]; 2% and 3% 1,3-propanediol in culture medium): inhibition effect resulting in a yellowing discoloration of the culture, slower growth and clumping | survival of the culture ([1]; 5% 1,3-propanediol in culture medium): could not survive and bleached out after 3 days | effect on growth compared to the control ([1]; up to 1% 1,3-propanediol in culture medium, exponential phase culture): no effect | survival of the culture ([2]; 2% 1,3-propanediol addition): lethal resulting in a completely bleached culture | effect on growth compared to the control ([2]; up to 1% 1,3-propanediol addition, exponential phase culture): no effect
